Source: patent publication US20030186948A1, “O-linked N-acetylglucosamine pathway in the pathogenesis of neurodegeneration and diabetes” (priority 2000, published 2003)
Where a SMILES comes first, the peptide text is derived from it. [ ]: non-standard residue; d: D form. The star is where a group is joined. Nle = CCCC[C@H](N)C(=O)O; Cbz = O=C(OCc1ccccc1)*

Tests used:
[1] = tested on: p135 O-glycosylation in pancreatic islets; experiment: Pancreatic islet p135 O-glycosylation (RL2 immunoprecipitation and Western blot); type: cell-based, rat; conditions: for inhibition of p135 O-glycosylation: comparison with NOC-15, FIG. 12
Experimental: Rat pancreatic islets were isolated, counted into tubes and pre-incubated with 3 mM glucose. Following pre-incubation, islets were stimulated with 3 mM glucose, 5 mM STZ, 5 mM NOC-15, or 5 mM DPTA. NOC-15 ((Z)-1-[N-(3-Ammoniopropyl)-N-(n-propyl)amino]diazen-ium-1,2-diolate, also known as PAPA NONOate) is a structural analog of […] (FIG. 9). At the end of the experiment, O-glycosylated proteins were immunoprecipitated with RL2 antibody, which binds to O-linked N-acetylglucosamine. Immunoprecipitated proteins were run out on a 6.5% SDS-PAGE gel and the proteins were then transferred to a nitrocellulose blot. The blot was then probed with RL2 antibody, which was detected by the ECL method. The blot was exposed to X-ray film and the film was developed and photographed. […] The structure and action of NOC-15 can thus be used as a basis to synthesize drugs that can be used to prevent and/or treat diabetes.

[2] = tested on: hippocampal neurons (CA1 region); experiment: RL2 immunostaining of brain O-GlcNAc after cerebroventricular streptozotocin; type: in vivo, rat; conditions: 6 hours after injection
Experimental: To determine if streptozotocin causes hippocampal neuron O-GlcNAc accumulation, the drug was delivered stereotactically to the cerebroventricles of a rat brain. The brain tissues were then stained for O-GlcNAc content using the O-GlcNAc-specific monoclonal antibody, RL2. Staining of rat tissue by this mouse antibody is easier because detection is not hampered by endogenous mouse IgG. Staining is blocked by preincubation of RL2 with GlcNAc, but not GalNAc or glucosamine (needs acetylation) or other sugars. The bound RL2 can be detected by fluorescent-tagged antimouse IgG antibody. […] At 6 hours post-injection, the animals were sacrificed and brain O-GlcNAc content was detected with RL2 immunostaining as previously described (Liu et al., 2000).

pancreatic islets = experiment: TUNEL assay and p53 staining of pancreatic slices from STZ-treated rats; type: in vivo, rat
Experimental: The effect of streptozotocin on p53 accumulation in the islets was determined using immunohistochemistical analysis of pancreatic slices from rats treated for various times with STZ. […] This assay has been described thoroughly (Liu et al., 2000). The TUNEL positivity peaks at about 22-24 hours after the administration of STZ. When the tissue was stained with p53 antibodies, it was noted that p53 accumulation preceded the apoptosis. […] This corresponds with the observation the O-GlcNAc transferase is much more highly expressed in the endocrine pancreas. STZ also is toxic to the somatotropes in the pituitary where O-GlcNAc transferase is highly expressed. Thus, it is predicted there where O-GlcNAc transferase is abundant, STZ-sensitivity should be seen.

[3] = tested on: TGFα promoter β-gal reporter in pancreatic β-cells; experiment: TGFα-βgal reporter activity in islets after streptozotocin injection; type: in vivo, mouse; conditions: TGFα-βgal reporter mice, dose that causes β-cell apoptosis
Experimental: The TGFα promoter was placed in front of the β-galactosidase reporter gene and developed two lines of transgenic mice. The line with the best reporter activity was used in all subsequent experiments. Tissue expression of the reporter was detected as follows: tissues were quickly excised, cut into pieces, and fixed in 4% paraformaldehyde (made in PBS, pH 7.5) for 30 min at 4° C. Tissue sections were rinsed three times 10 min each in ice-cold PBS, immersed in freshly prepared staining solution [10 ml solution of PBS (pH 7.4) containing 2 mM MgCl2, 0.01% sodium deoxycholate, 0.02% NP40, 0.1% X-gal dissolved in dimethylformamide, 82.5 mg potassium ferricyanide, and 94.5 mg potassium ferrocyanide], and incubated overnight at 37° C. The reaction was stopped by rinsing the organs in PBS. Sampleswere stored in 70% ethanol at 4° C. […] For example, β-gal activity was detected in the pituitary and in some neurons, sites where native TGFα had been detected before. […] Of particular interest in this regard was the absence of staining in the exocrine and endocrine pancreas.
Because p53 accumulates in the islet in response to STZ, and TGFα transcription is driven by p53, it is reasonable to examine the TGFα reporter mice for TGFα promoter activation in the islets. Mice were injected with streptozotocin at the dose that cause β-cell apoptosis. […]

[4] = target: T1, brain proteasome LLVY chymotryptic activity (Rattus norvegicus, UniProt P28075); experiment: suc-LLVY-AMC cleavage in brain extract of streptozotocin-injected animals; type: in vivo
T1 construct: Brain extract was prepared from animals injected with or without streptozotocin; from tissue; host or cells: brain extract
T1 sequence (P28075 60-263): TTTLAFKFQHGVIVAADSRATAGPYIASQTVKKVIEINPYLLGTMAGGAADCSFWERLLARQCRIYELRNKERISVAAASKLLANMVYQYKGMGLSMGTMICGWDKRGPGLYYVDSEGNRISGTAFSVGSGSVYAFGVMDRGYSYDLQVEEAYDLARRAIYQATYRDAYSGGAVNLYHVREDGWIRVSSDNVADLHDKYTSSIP
Experimental: To determine whether STZ-injected animals display a n alteration in proteasomal function, the cleavage of the peptide LLVY was examined following streptozotocin treatment. Brain extract was prepared from animals injected with or without streptozotocin, and suc-LLVY-AMC was added to the extract.

hippocampal neurons = experiment: Intracerebroventricular streptozotocin in TGFα-βgal mice: p53 staining and reporter function in brain; type: in vivo, mouse
Experimental: A number of research groups have developed techniques of injecting streptozotocin into the cerebral ventricles (Lannert & Hoyer, 1998; Weinstock et al., 2001; Sharma & Gupta, 2002). To determine if treatment with streptozotocin causes p53 accumulation in the brain, freshly prepared streptozotocin can be injected stereotactically into the cerebral ventricles, and the brain tissues can then be stained for the presence of p53. When the control TGFα-βgal mice were injected with vehicle alone, no p53 was detected 16 hours post injection. […] STZ was also injected into TGFα-βgal mice with a homozygous knock-out of p53.
The brains slices from similar mice receiving icv injections 36 hours prior to sacrifice were examined for TGFα-βgal reporter function.

[5] = tested on: Sp1 proteasome degradation; experiment: Sp1 depletion in cells under low glucose and cAMP accumulation; type: cell-based
Source text: This study therefore correlated the stability of Sp1 against proteasome degradation with the level of Sp1 modification by O-GleNAc.
The depletion of O-GlcNAc on Sp1 and other proteins appeared to have resulted both from the glucose starvation and from the cAMP.

[6] = tested on: proteasome processing of Sp1 in nuclear extract; experiment: Sp1 degradation by proteasome in nuclear extract; type: biochemical; conditions: activated nuclear extract
[7] = target: T2, Purified recombinant O-GlcNAc transferase (Homo sapiens, UniProt O15294); experiment: Inhibition of purified recombinant O-GlcNAc transferase; type: biochemical
T2 sequence (O15294 1-1046): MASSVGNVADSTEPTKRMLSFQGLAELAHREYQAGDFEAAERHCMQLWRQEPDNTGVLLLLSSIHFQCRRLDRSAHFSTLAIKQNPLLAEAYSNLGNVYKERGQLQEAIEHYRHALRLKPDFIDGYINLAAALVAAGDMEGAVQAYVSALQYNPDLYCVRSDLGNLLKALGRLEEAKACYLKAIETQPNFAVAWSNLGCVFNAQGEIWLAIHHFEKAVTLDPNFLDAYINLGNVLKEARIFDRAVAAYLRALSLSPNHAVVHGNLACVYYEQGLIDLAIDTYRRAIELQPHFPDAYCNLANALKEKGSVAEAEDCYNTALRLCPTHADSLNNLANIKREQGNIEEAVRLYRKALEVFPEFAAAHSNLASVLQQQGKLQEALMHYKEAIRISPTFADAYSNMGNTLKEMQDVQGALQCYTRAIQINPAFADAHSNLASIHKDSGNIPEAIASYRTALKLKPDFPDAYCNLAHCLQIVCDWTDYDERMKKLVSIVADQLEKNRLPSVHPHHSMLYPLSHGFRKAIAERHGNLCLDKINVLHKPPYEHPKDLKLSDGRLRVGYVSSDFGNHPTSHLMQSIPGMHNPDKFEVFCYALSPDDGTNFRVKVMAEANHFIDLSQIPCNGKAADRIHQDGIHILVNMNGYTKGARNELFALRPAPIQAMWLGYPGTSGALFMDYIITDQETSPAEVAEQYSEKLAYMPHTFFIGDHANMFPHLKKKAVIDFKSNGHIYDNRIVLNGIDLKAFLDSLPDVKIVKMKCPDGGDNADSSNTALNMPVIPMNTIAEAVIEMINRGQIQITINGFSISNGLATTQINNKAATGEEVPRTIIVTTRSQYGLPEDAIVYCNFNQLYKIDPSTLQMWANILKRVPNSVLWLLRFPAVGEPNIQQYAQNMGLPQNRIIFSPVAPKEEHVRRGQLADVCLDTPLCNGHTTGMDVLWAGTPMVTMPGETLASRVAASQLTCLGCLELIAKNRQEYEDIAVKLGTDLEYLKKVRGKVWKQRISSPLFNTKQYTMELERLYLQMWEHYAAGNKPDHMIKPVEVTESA
Experimental: (§1) Another chemical means of inhibiting O-GlcNAc transferase has been discovered. Another long known diabetogenic drug, alloxan (ALX) (FIG. 8 above), is a uracil analog. Injections of this drug into laboratory rats also causes a relatively specific death of the pancreatic β-cells. […] Purified recombinant O-GlcNAc transferase is inhibited half-maximally by 0.1 mM alloxan, compatible with the dose of this drug that causes diabetes. These studies indicate that an analog of UDP-GlcNAc that mimics the uracil moiety like alloxan, might be an index compound for the discovery of other UDP-GlcNAc like molecules that inhibit the O-GlcNAc transferase.

[8] = tested on: O-GlcNAc modification of p135 in isolated β-cells; experiment: O-GlcNAc modification of p135 in isolated β-cells treated with alloxan; type: cell-based
Experimental: as §1

[9] = target: T3, proteasome chymotryptic activity in NRK nuclear extracts (Rattus norvegicus, UniProt P28075); experiment: suc-LLVY-AMC proteasome peptidase assay in NRK nuclear extracts; type: biochemical; conditions: cells treated before extract preparation; data not shown
T3 construct: endogenous in cells; host or cells: NRK cells, nuclear extract
T3 sequence (P28075 60-263): T1 sequence (P28075 60-263)
Experimental: The chymotryptic activity of the proteasome itself can be measured using short synthetic peptides. The peptide, N-succinyl-Leu-Leu-Val-Tyr-7-amido-4-methylcoumarin (suc-LLVY-AMC) (Sigma), is coupled to a fluorescent indicator, and the cleavage can be monitored and quantitated by a fluorometer. […] The reaction is carried out in a 96 well plate.
If the chymotryptic cleavage has occurred, the fluorescence can b e excited with UV light at 365 nm and detected by a CCDdigital camera coupled to a computer. Because the LLVY peptide can be cleaved by any enzyme having chymotryptic activity, cleavage is not specifically proteasome-dependent. However, if cleavage is blocked by a wide spectrum proteasome inhibitors, then it is reasonable to deduce that the detected fluorescence is proteasome-dependent.
Proteasome peptidase activity in activated NRK nuclear extracts was examined with this assay. The activity could be inhibited by preincubating the extract with known proteasome inhibitors indicating the fluorescent signal derives from authentic proteasome activity (FIG. 2). […] When the extract was exposed briefly to GST-OGT plus UDP-GlcNAc and then the O-GlcNAc transferase was removed, the chymotryptic activity was eliminated. GST had no effect on the proteasome activity. […] The chymotryptic activity of the proteasome was stimulated by this treatment.

CN(N=O)C(=O)N[C@H]1C(O)O[C@H](CO)[C@@H](O)[C@@H]1O (mixture of isomers) [streptozotocin]
effect on p135 O-glycosylation ([1]; rat islets, 5 mM): stimulated | O-GlcNAc signal in hippocampal neurons (RL2) [2]: marked increase | p53 accumulation in islets (pancreatic islets; at 16 hours): well established | time of peak TUNEL positivity after administration (pancreatic islets; rat islets): 22 to 24 h | apoptosis in islets by TUNEL assay (pancreatic islets; rats treated with STZ): causes apoptosis | β-gal reporter activity in pancreas [3]: appeared in the β-cells but not exocrine pancreas | LLVY chymotryptic activity in the brains of treated animals ([4]; brain extract, preliminary results): marked inhibition | p53 by immunohistochemistry in neurons of the hippocampus (hippocampal neurons; 16 hours post icv injection): readily detectable | TGFα-βgal reporter function in hippocampal neurons (hippocampal neurons; icv injection 36 hours prior to sacrifice, wildtype TGFα-βgal mice): show reporter function

NCCCN(CCCN)/[N+]([O-])=N/O [DPTA]
inhibition of p135 O-glycosylation [1]: do not inhibit

CCCC[C@@H](C=O)NC(=O)[C@H](CC(C)C)NC(=O)[C@H](CC(C)C)NC(C)=O [LLnL] (Ac-Leu-Leu-[Nle]-aldehyde)
loss of Sp1 under low glucose and cAMP accumulation [5]: blocked

CC(C)C[C@@H](C=O)NC(=O)[C@H](CC(C)C)NC(=O)[C@H](CC(C)C)NC(=O)OCc1ccccc1 [MG132] (Cbz-Leu-Leu-Leu-aldehyde)
loss of Sp1 under low glucose and cAMP accumulation [5]: blocked

CCCN(CCCN)/[N+]([O-])=N/O [NOC-15, (Z)-1-[N-(3-Ammoniopropyl)-N-(n-propyl)amino]diazen-ium-1,2-diolate]
inhibition of STZ-induced p135 O-glycosylation ([1]; rat islets, 5 mM streptozotocin and 5 mM NOC-15): almost completely inhibiting

NCCCNCCCCN(CCCN)/[N+]([O-])=N/O [Spermine NONOate]
inhibition of p135 O-glycosylation [1]: do not inhibit

CC(=O)N[C@H]1[C@@H](OP(=O)(O)OP(=O)(O)OC[C@H]2O[C@@H](n3ccc(=O)[nH]c3=O)[C@H](O)[C@@H]2O)O[C@H](CO)[C@H](O)[C@@H]1O [UDP-GalNAc]
effect on the inhibitory effect of catalytically active O-GlcNAc transferase on Sp1 processing [6]: partially blocked

O=C1NC(=O)C(=O)C(=O)N1 [alloxan]
IC50 [7]: 100 µM | increase in the O-GlcNAc modification of p135 in response to glucose or glucosamine [8]: fail to display an increase

N[C@H]1C(O)O[C@H](CO)[C@@H](O)[C@@H]1O (stereo partly shown) [glucosamine]
Sp1 degradation after glucose starvation and forskolin ([5]; cells provided glucosamine): degradation decreased | proteasome chymotryptic activity of extract from treated cells [9]: does not display this activity

CC(=O)N[C@@H](CSC(=O)[C@]1([C@@H](O)C(C)C)NC(=O)[C@H](C)[C@@H]1O)C(=O)O [lactacystin]
loss of Sp1 under low glucose and cAMP accumulation [5]: blocked | proteasome chymotryptic activity of extract from treated cells [9]: does not display this activity

CC(C)[C@H](O)[C@@]12NC(=O)[C@H](C)[C@@H]1OC2=O [β-lactone]
suc-LLVY-AMC fluorescence in brain extract ([4]; inhibitor added to extract): inhibited
